From the supplement of paper PMC10307832

Tests used:
Assay in all cases: relative viability (nuclei count vs DMSO), 5 days (fraction); higher = more cells survive
Venetoclax + Pictilisib = compound: CC1(C)CCC(CN2CCN(c3ccc(C(=O)NS(=O)(=O)c4ccc(NCC5CCOCC5)c([N+](=O)[O-])c4)c(Oc4cnc5[nH]ccc5c4)c3)CC2)=C(c2ccc(Cl)cc2)C1 [Venetoclax] + CS(=O)(=O)N1CCN(Cc2cc3nc(-c4cccc5[nH]ncc45)nc(N4CCOCC4)c3s2)CC1 [Pictilisib] (partner 1 µM)
Procedure, shortened: (§1)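 Each reported value is a median over duplicate plates. It expresses relative viability: treated-well nuclei count divided by vehicle-well nuclei count. Lung cancer cell lines in 1536-well plates were dosed by pin tool a day after seeding, alone with one drug or with a fixed anchor-drug dose plus five library-drug doses (not always all listed) in √10 steps, and nuclei were counted after 5 days.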

Venetoclax + Trametinib = compound: CC1(C)CCC(CN2CCN(c3ccc(C(=O)NS(=O)(=O)c4ccc(NCC5CCOCC5)c([N+](=O)[O-])c4)c(Oc4cnc5[nH]ccc5c4)c3)CC2)=C(c2ccc(Cl)cc2)C1 [Venetoclax] + CC(=O)Nc1cccc(-n2c(=O)n(C3CC3)c(=O)c3c(Nc4ccc(I)cc4F)n(C)c(=O)c(C)c32)c1 [Trametinib] (partner 0.02 µM)
Procedure, shortened: as §1

Selumetinib + Phenformin = compound: Cn1cnc2c(F)c(Nc3ccc(Br)cc3Cl)c(C(=O)NOCCO)cc21 [Selumetinib] + N=C(N)NC(=N)NCCc1ccccc1 [Phenformin] (partner 250 µM)
Procedure, shortened: as §1

Venetoclax + AZD7762 = compound: CC1(C)CCC(CN2CCN(c3ccc(C(=O)NS(=O)(=O)c4ccc(NCC5CCOCC5)c([N+](=O)[O-])c4)c(Oc4cnc5[nH]ccc5c4)c3)CC2)=C(c2ccc(Cl)cc2)C1 [Venetoclax] + NC(=O)Nc1cc(-c2cccc(F)c2)sc1C(=O)N[C@H]1CCCNC1 [AZD7762] (partner 0.2 µM)
Procedure, shortened: as §1

| Cell Line | relative viability (Venetoclax + Pictilisib; first compound 0.01 µM) | relative viability (Venetoclax + Pictilisib; first compound 0.03162 µM) | relative viability (Venetoclax + Pictilisib; first compound 0.1 µM) | relative viability (Venetoclax + Pictilisib; first compound 0.3162 µM) | relative viability (Venetoclax + Pictilisib; first compound 1 µM) | relative viability (Venetoclax + Trametinib; first compound 0.01 µM) | relative viability (Venetoclax + Trametinib; first compound 0.03162 µM) | relative viability (Venetoclax + Trametinib; first compound 0.1 µM) | relative viability (Venetoclax + Trametinib; first compound 0.3162 µM) | relative viability (Venetoclax + Trametinib; first compound 1 µM) | relative viability (Selumetinib + Phenformin; first compound 0.02 µM) | relative viability (Selumetinib + Phenformin; first compound 0.06325 µM) | relative viability (Selumetinib + Phenformin; first compound 0.2 µM) | relative viability (Selumetinib + Phenformin; first compound 0.6325 µM) | relative viability (Venetoclax + AZD7762; first compound 0.01 µM) | relative viability (Venetoclax + AZD7762; first compound 0.03162 µM) | relative viability (Venetoclax + AZD7762; first compound 0.1 µM) | relative viability (Venetoclax + AZD7762; first compound 0.3162 µM) | relative viability (Venetoclax + AZD7762; first compound 1 µM) |
| --- | --- | --- | --- | --- | --- | --- | --- | --- | --- | --- | --- | --- | --- | --- | --- | --- | --- | --- | --- |
| NCI-H2009 | 0.814 | 0.955 | 0.778 | 0.838 | 0.774 | 0.346 | 0.351 | 0.292 | 0.266 | 0.264 | 0.428 | 0.359 | 0.29 | 0.217 | – | – | – | – | – |
| CAL-12T | 0.36 | 0.609 | 0.489 | 0.419 | 0.396 | 0.24 | 0.385 | 0.357 | 0.379 | 0.278 | 0.469 | 0.392 | 0.393 | 0.353 | 0.584 | 0.644 | 0.638 | 0.636 | 0.435 |
| NCI-H1623 | – | – | – | – | – | – | – | – | – | – | 0.54 | 0.503 | 0.483 | 0.487 | – | – | – | – | – |
| HCC-78 | 0.179 | 0.244 | 0.187 | 0.206 | 0.238 | 0.599 | 0.826 | 0.597 | 0.722 | 0.911 | 0.667 | 0.74 | 0.601 | 0.677 | 0.667 | 0.818 | 0.738 | 0.577 | 0.539 |
| EKVX | 0.451 | 0.432 | 0.423 | 0.469 | 0.395 | 0.328 | 0.382 | 0.302 | 0.335 | 0.38 | 0.22 | 0.217 | 0.214 | 0.22 | 0.698 | 0.766 | 0.743 | 0.695 | 0.671 |
| NCI-H1703 | 0.22 | 0.266 | 0.206 | 0.229 | 0.236 | – | – | – | – | – | – | – | – | – | 0.157 | 0.136 | 0.122 | 0.129 | 0.124 |
| NCI-H1944 | 0.369 | 0.37 | 0.355 | 0.383 | 0.36 | 0.511 | 0.474 | 0.394 | 0.432 | 0.361 | 0.192 | 0.195 | 0.157 | 0.168 | 0.74 | 0.573 | 0.429 | 0.479 | 0.468 |
| NCI-H1755 | 0.346 | 0.482 | 0.398 | 0.449 | 0.465 | 0.713 | 0.765 | 0.768 | 0.715 | 0.736 | 0.628 | 0.594 | 0.584 | 0.53 | 0.445 | 0.471 | 0.379 | 0.386 | 0.411 |
| Calu-6 | 0.801 | 0.89 | 0.879 | 0.857 | 0.882 | – | – | – | – | – | – | – | – | – | – | – | – | – | – |
| EBC-1 | 0.436 | 0.59 | 0.348 | 0.339 | 0.406 | – | – | – | – | – | – | – | – | – | – | – | – | – | – |
| EPLC-272H | – | 0.3 | 0.327 | 0.403 | 0.33 | 0.287 | 0.284 | 0.238 | 0.259 | 0.263 | 0.26 | 0.223 | 0.211 | 0.223 | 0.192 | 0.188 | 0.229 | 0.318 | 0.225 |
| A-427 | 0.651 | 0.809 | 0.588 | 0.834 | 0.705 | 0.624 | 0.741 | 0.735 | 0.71 | 0.713 | 0.264 | 0.271 | 0.266 | 0.23 | 0.752 | 0.762 | 0.674 | 0.784 | 0.709 |
| NCI-H3122 | 0.797 | 0.619 | 0.576 | 0.568 | 0.683 | 0.259 | 0.197 | 0.211 | 0.227 | 0.29 | 0.386 | 0.305 | 0.287 | 0.286 | 1.07 | 0.997 | 0.909 | 0.954 | 1.03 |
| NCI-H1563 | 0.881 | 0.653 | 0.648 | 0.642 | 0.698 | – | – | – | – | – | 0.688 | 0.68 | 0.627 | 0.593 | – | – | – | – | – |
| NCI-H358 | 0.323 | 0.364 | 0.3 | 0.327 | 0.363 | 0.117 | 0.14 | 0.106 | 0.126 | 0.135 | 0.211 | 0.175 | 0.183 | 0.158 | 0.338 | 0.527 | 0.556 | 0.714 | 0.558 |
| SK-LU-1 | 0.558 | 0.634 | 0.524 | 0.592 | 0.511 | 0.585 | 0.512 | 0.522 | 0.507 | 0.587 | 0.536 | 0.484 | 0.505 | 0.239 | – | – | – | – | – |
| NCI-H2347 | 0.606 | 0.606 | 0.668 | 0.746 | 0.123 | 0.327 | 0.288 | 0.254 | 0.298 | 0.267 | 0.401 | 0.256 | 0.187 | 0.283 | 0.729 | 0.894 | 0.663 | 0.723 | 0.76 |
| IA-LM | 0.354 | 0.322 | 0.275 | 0.317 | 0.337 | – | – | – | – | – | – | – | – | – | – | – | – | – | – |
| HCC-15 | 0.652 | 0.804 | 0.629 | 0.706 | 0.701 | 0.384 | 0.457 | 0.352 | 0.403 | 0.375 | 0.37 | 0.284 | 0.231 | 0.185 | 1.29 | 1.28 | 1.15 | 1.16 | 1.36 |
| PC-3 [JPC-3] | 0.643 | 0.872 | 0.787 | 0.782 | 0.67 | 0.656 | 0.685 | 0.678 | 0.683 | 0.666 | 0.446 | 0.489 | 0.473 | 0.414 | 0.787 | 0.828 | 0.89 | 0.836 | 0.744 |
| NCI-H1915 | 0.953 | 0.911 | 0.894 | 0.979 | 0.92 | 0.253 | 0.319 | 0.295 | 0.318 | 0.299 | 0.423 | 0.371 | 0.271 | 0.284 | 0.657 | 0.658 | 0.655 | 0.695 | 0.611 |
